Source: PubChem BioAssay AID2060491 (Molecular Pharmacology Branch, DTP, NCI, 2025)

Test system: 857933-349-R-J2-PDC complex spheroids, viability
Assay: Anticancer human tumor 857933-349-R-J2-PDC patient-derived colon adenocarcinoma cell line growth inhibition [GQUAD]
Conditions: for IC50: curve of first compound; for viability, T/C: stronger effect = lower value
Summary of the method: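 Viability of tumor cells grown as complex spheroids with endothelial and stromal cells, exposed to drug combinations. Top concentration at or near clinical Cmax (else 10 microM), diluted in half-log increments.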

[1] = second compound 0.0316 µM, first compound 0.0316 µM
[2] = second compound 0.0316 µM, first compound 0.316 µM
[3] = second compound 0.1 µM, first compound 0.0316 µM
[4] = second compound 0.1 µM, first compound 0.316 µM
[5] = second compound 0.316 µM, first compound 0.0316 µM
[6] = second compound 0.316 µM, first compound 0.316 µM
[7] = second compound 1 µM, first compound 0.0316 µM
[8] = second compound 1 µM, first compound 0.316 µM
[9] = second compound 3.16 µM, first compound 0.0316 µM
[10] = second compound 3.16 µM, first compound 0.316 µM
[11] = second compound 10 µM, first compound 0.0316 µM
[12] = second compound 10 µM, first compound 0.316 µM
[13] = second compound 0.0316 µM, first compound 0.000999 µM
[14] = second compound 0.0316 µM, first compound 0.00316 µM
[15] = second compound 0.0316 µM, first compound 0.00999 µM
[16] = second compound 0.0316 µM, first compound 0.0999 µM
[17] = second compound 0.1 µM, first compound 0.000999 µM
[18] = second compound 0.1 µM, first compound 0.00316 µM
[19] = second compound 0.1 µM, first compound 0.00999 µM
[20] = second compound 0.1 µM, first compound 0.0999 µM
[21] = second compound 0.316 µM, first compound 0.000999 µM
[22] = second compound 0.316 µM, first compound 0.00316 µM
[23] = second compound 0.316 µM, first compound 0.00999 µM
[24] = second compound 0.316 µM, first compound 0.0999 µM
[25] = second compound 1 µM, first compound 0.000999 µM
[26] = second compound 1 µM, first compound 0.00316 µM
[27] = second compound 1 µM, first compound 0.00999 µM
[28] = second compound 1 µM, first compound 0.0999 µM
[29] = second compound 3.16 µM, first compound 0.000999 µM
[30] = second compound 3.16 µM, first compound 0.00316 µM
[31] = second compound 3.16 µM, first compound 0.00999 µM
[32] = second compound 3.16 µM, first compound 0.0999 µM
[33] = second compound 10 µM, first compound 0.000999 µM
[34] = second compound 10 µM, first compound 0.00316 µM
[35] = second compound 10 µM, first compound 0.00999 µM
[36] = second compound 10 µM, first compound 0.0999 µM
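Note: spheroids exposed to compounds for one week before readout.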
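Throughout, for viability, T/C: percent viability relative to vehicle DMSO wells taken as 100%.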

Structure (SMILES): C=CC(=O)N1CCN(c2nc(=O)n(-c3c(C)ccnc3C(C)C)c3nc(-c4c(O)cccc4F)c(F)cc23)C(C)C1 (stereo unspecified) + CN(C)c1ccc(Nc2c3ccc(NC(=O)CCN4CCCC4)cc3nc3cc(NC(=O)CCN4CCCC4)ccc23)cc1
- IC50 (second compound 0.0316 µM): > 10000 nM
- IC50 (second compound 0.1 µM): > 10000 nM
- IC50 (second compound 0.316 µM): > 10000 nM
- IC50 (second compound 1 µM): > 10000 nM
- IC50 (second compound 3.16 µM): > 10000 nM
- IC50 (second compound 10 µM): > 10000 nM
- viability, T/C [1]: 114%
- viability, T/C (second compound 0.0316 µM, first compound 0.1 µM): 91.7%
- viability, T/C [2]: 108%
- viability, T/C (second compound 0.0316 µM, first compound 1 µM): 97.3%
- viability, T/C (second compound 0.0316 µM, first compound 3.16 µM): 114%
- viability, T/C (second compound 0.0316 µM, first compound 10 µM): 112%
- viability, T/C [3]: 104%
- viability, T/C (second compound 0.1 µM, first compound 0.1 µM): 102%
- viability, T/C [4]: 102%
- viability, T/C (second compound 0.1 µM, first compound 1 µM): 102%
- viability, T/C (second compound 0.1 µM, first compound 3.16 µM): 108%
- viability, T/C (second compound 0.1 µM, first compound 10 µM): 113%
- viability, T/C [5]: 105%
- viability, T/C (second compound 0.316 µM, first compound 0.1 µM): 99.5%
- viability, T/C [6]: 99%
- viability, T/C (second compound 0.316 µM, first compound 1 µM): 99.8%
- viability, T/C (second compound 0.316 µM, first compound 3.16 µM): 112%
- viability, T/C (second compound 0.316 µM, first compound 10 µM): 107%
- viability, T/C [7]: 97.2%
- viability, T/C (second compound 1 µM, first compound 0.1 µM): 90.8%
- viability, T/C [8]: 102%
- viability, T/C (second compound 1 µM, first compound 1 µM): 99.6%
- viability, T/C (second compound 1 µM, first compound 3.16 µM): 113%
- viability, T/C (second compound 1 µM, first compound 10 µM): 98.3%
- viability, T/C [9]: 90.2%
- viability, T/C (second compound 3.16 µM, first compound 0.1 µM): 79.5%
- viability, T/C [10]: 91.4%
- viability, T/C (second compound 3.16 µM, first compound 1 µM): 89.9%
- viability, T/C (second compound 3.16 µM, first compound 3.16 µM): 100%
- viability, T/C (second compound 3.16 µM, first compound 10 µM): 88%
- viability, T/C [11]: 73%
- viability, T/C (second compound 10 µM, first compound 0.1 µM): 77.9%
- viability, T/C [12]: 70.8%
- viability, T/C (second compound 10 µM, first compound 1 µM): 77.5%
- viability, T/C (second compound 10 µM, first compound 3.16 µM): 82.3%
- viability, T/C (second compound 10 µM, first compound 10 µM): 79.3%

Structure (SMILES): CC[C@@]1(O)C(=O)OCc2c1cc1n(c2=O)Cc2cc3c(CN(C)C)c(O)ccc3nc2-1 + CN(C)c1ccc(Nc2c3ccc(NC(=O)CCN4CCCC4)cc3nc3cc(NC(=O)CCN4CCCC4)ccc23)cc1
- IC50 (second compound 0.0316 µM): 262 nM
- IC50 (second compound 0.1 µM): 272 nM
- IC50 (second compound 0.316 µM): 277 nM
- IC50 (second compound 1 µM): 296 nM
- IC50 (second compound 3.16 µM): > 316 nM
- IC50 (second compound 10 µM): > 316 nM
- viability, T/C [13]: 101%
- viability, T/C [14]: 103%
- viability, T/C [15]: 101%
- viability, T/C [1]: 98.2%
- viability, T/C [16]: 67%
- viability, T/C [2]: 46.7%
- viability, T/C [17]: 105%
- viability, T/C [18]: 109%
- viability, T/C [19]: 95.3%
- viability, T/C [3]: 97.7%
- viability, T/C [20]: 70.5%
- viability, T/C [4]: 47%
- viability, T/C [21]: 108%
- viability, T/C [22]: 101%
- viability, T/C [23]: 98.7%
- viability, T/C [5]: 89.6%
- viability, T/C [24]: 80.7%
- viability, T/C [6]: 45.1%
- viability, T/C [25]: 99.7%
- viability, T/C [26]: 99.1%
- viability, T/C [27]: 95.9%
- viability, T/C [7]: 88.5%
- viability, T/C [28]: 77.1%
- viability, T/C [8]: 48%
- viability, T/C [29]: 94.2%
- viability, T/C [30]: 77.4%
- viability, T/C [31]: 84.7%
- viability, T/C [9]: 76.1%
- viability, T/C [32]: 77.8%
- viability, T/C [10]: 54.5%
- viability, T/C [33]: 72.3%
- viability, T/C [34]: 76.8%
- viability, T/C [35]: 69.5%
- viability, T/C [11]: 69.9%
- viability, T/C [36]: 68.7%
- viability, T/C [12]: 59%

Structure (SMILES): CCc1c2c(nc3ccc(O)cc13)-c1cc3c(c(=O)n1C2)COC(=O)[C@]3(O)CC + CN(C)c1ccc(Nc2c3ccc(NC(=O)CCN4CCCC4)cc3nc3cc(NC(=O)CCN4CCCC4)ccc23)cc1
- IC50 (second compound 0.0316 µM): 16.1 nM
- IC50 (second compound 0.1 µM): 15.6 nM
- IC50 (second compound 0.316 µM): 15.3 nM
- IC50 (second compound 1 µM): 13.2 nM
- IC50 (second compound 3.16 µM): 14.5 nM
- IC50 (second compound 10 µM): 24 nM
- viability, T/C [13]: 95.6%
- viability, T/C [14]: 78.4%
- viability, T/C [15]: 55.4%
- viability, T/C [1]: 40.4%
- viability, T/C [16]: 21.6%
- viability, T/C [2]: 5.95%
- viability, T/C [17]: 94.2%
- viability, T/C [18]: 81.8%
- viability, T/C [19]: 59.9%
- viability, T/C [3]: 33.8%
- viability, T/C [20]: 18.5%
- viability, T/C [4]: 7.59%
- viability, T/C [21]: 98%
- viability, T/C [22]: 82.3%
- viability, T/C [23]: 57.6%
- viability, T/C [5]: 34%
- viability, T/C [24]: 21.5%
- viability, T/C [6]: 5.15%
- viability, T/C [25]: 93.5%
- viability, T/C [26]: 77%
- viability, T/C [27]: 55.9%
- viability, T/C [7]: 31.4%
- viability, T/C [28]: 20.2%
- viability, T/C [8]: 5.78%
- viability, T/C [29]: 89.9%
- viability, T/C [30]: 77.6%
- viability, T/C [31]: 58.3%
- viability, T/C [9]: 31.9%
- viability, T/C [32]: 21.7%
- viability, T/C [10]: 7.69%
- viability, T/C [33]: 70.4%
- viability, T/C [34]: 67.4%
- viability, T/C [35]: 59%
- viability, T/C [11]: 48.2%
- viability, T/C [36]: 27.8%
- viability, T/C [12]: 14.2%
